# Experimental data taken from patent publication US20150065436A1, “INHIBITING INTERACTION BETWEEN HIF-1ALPHA AND p300/CBP WITH HYDROGEN BOND SURROGATE-BASED HELICES” (UNIVERSITY OF SOUTHERN CALIFORNIA, priority 2013, published 2015).
# Test: Plasma stability and biodistribution study
# Type: in vivo
# Settings: 1 mg/kg intravenously, female BALB/c mice
# Experimental: Plasma stability and biodistribution studies were performed in 10-week-old female BALB/c mice (Charles River) with 3 mice per time point. Briefly, HBS 1 or peptide 3 was dissolved in 70 μL of sterile PBS and administered intravenously at a dose of 1 mg/kg. Then, 1 mL of blood was collected by cardiac puncture at euthanasia at the following time points: 30 min., 1 h., 2 h., 4 h., 6 h., 8 h., 12 h., 16 h., and 24 h. after drug administration. The experiments were performed under an approved IACUC protocol at the University of Southern California.
# Samples were prepared by mixing 30 μL of plasma with 20 μL of 50% MeOH and 50% aqueous 1% formic acid. The mixture was vortexed and mixed with an additional 120 μL of 0.5% formic acid in MeOH/ACN (4:6) and 20 μL of 2.0 μg/mL isoproterenol in MeOH/1% aqueous formic acid (1:1) as an internal standard. The mixture was vortexed again for 2 minutes and centrifuged at 13,000 rpm for 4 minutes. Next, 20 μL of the supernatant was transferred to a new tube and mixed with 180 μL of 50% MeOH/ACN (4:6) and 50% aqueous 1% formic acid. Standard curves were prepared by mixing the plasma from three untreated mice with 20 μL of 50% MeOH and 50% aqueous 1% formic acid prepared with HBS 1 or peptide 3 at a concentration range of 0.05-2 μg/mL.
# Samples were analyzed by LC/MS/MS using an Agilent 6210 time-of-flight LC/MS system. HPLC separation was achieved using a Prevail 3u C18 100×2.1 mm column (Grace Davison, Deerfield, Ill., USA). The column temperature was maintained at 20° C. The mobile phase consisted of A (5% acetonitrile and 95% of 0.05% aqueous formic acid) and B (5% of 05% aqueous formic acid and 95% acetonitrile). The following gradient program was used: 0% B (0 min, 0.125 ml/min), 100% B (17 min, 0.125 ml/min). The total run time was 35 minutes. […]
# A mouse xenograft tumor model was used to assess the in vivo efficacy of HBS 1. The relative plasma stabilities of HBS 1 and linear peptide 3 in mice were first measured. […]
compound,measurement,setting,value
"CC(C)C[C@H](NC(=O)[C@H](C)NC(=O)[C@H](CCCNC(=N)N)NC(=O)[C@H](C)N1CC=CCCC(=O)N[C@@H](CCC(=O)O)C(=O)N[C@@H](CC(C)C)C1=O)C(=O)N[C@@H](CC(=O)O)C(=O)N[C@@H](CCC(N)=O)C(N)=O [HBS 1, XELA*RALDQ-NH2]",pattern of plasma decay,,bi-exponential pattern of decay
same,plasma concentrations over the same time intervals,30 min to 24 h,much higher concentrations as compared to peptide 3
